Several values for one entry are separate records, joined by “and”; a condition that tells them apart may be missing. Equal entries are not always repeated.
Columns and labels:
Type in all cases: in vivo, human
[1] = system: venous ammonia in pediatric patients with UCDs; experiment: Studies 4/4E and 5, uncontrolled open-label studies in children under 2 years of age
Procedure: Uncontrolled, open-label studies were conducted to assess monthly ammonia control and hyperammonemic crisis of RAVICTI® in pediatric patients with UCDs 2 months to less than 2 years of age (Study 4/4E, Study 5, and Study 6). Patients in Study 5 previously participated in Study 4/4E. A total of 17 pediatric patients with UCDs aged 2 months to less than 2 years participated in the studies.
A total of 7 patients with UCDs aged 2 months to less than 2 years participated in Studies 4/4E and 5. In these studies, there were 7, 6, 6, 6 and 3 pediatric patients who completed 1, 6, 9, 12 and 18 months, respectively (mean and median exposure of 15 and 17 months, respectively). Patients were converted from sodium phenylbutyrate to RAVICTI®. The dosage of RAVICTI® was calculated to deliver the same amount of PBA as the sodium phenylbutyrate dosage the patients were taking when they entered the study.
Patients received a mean RAVICTI® dose of 7.5 mL/m^2/day (8.2 g/m^2/day), with doses ranging from 3.3 to 12.3 mL/m^2/day (3.7 to 13.5 g/m^2/day). Patients were dosed three times a day (n=3) or four times a day (n=4).
Venous ammonia levels were monitored on days 1, 3 and 10 in Study 4 and at week 1 in Study 4E. Two patients had day 1 ammonia values of 122 micromol/L and 111 micromol/L respectively, neither had associated signs and symptoms of hyperammonemia.
During the extension period, venous ammonia levels were monitored monthly. Ammonia values across different laboratories were normalized (transformed) to a common normal pediatric range of 28 to 57 micromol/L for comparability. The mean venous ammonia values in pediatric patients at month 1, 3, 6, 9 and 12 were 58, 49, 34, 65, and 31 micromol/L during treatment with RAVICTI®, respectively.
Three patients reported a total of 3 hyperammonemic crises, as defined in Study 6. Hyperammonemic crises were precipitated by gastroenteritis, vomiting, infection or no precipitating event (one patient). There were 4 patients who had one venous ammonia level that exceeded 100 micromol/L which was not associated with a hyperammonemic crisis.

[2] = HPN-100-005 pharmacokinetics of HPN-100 and NaPBA in pediatric UCD patients; conditions: HPN-100-005 (N = 11)
Text: (§1) The pharmacokinetics of the short term studies can be summarized as follows. Mean exposure levels of HPN-100 metabolites PBA, PAA, and PAGN after doses of HPN-100 and NaPBA with meals (TID) in pediatric (29 days to 17 years of age) UCD patients in HPN-100-005 and HPN-100-012 studies are summarized below. The mean exposure to PBA, the parent metabolite, and mean exposure to PAGN, the terminal metabolite, show no systematic variation across age groups, while PAA exposure tended to decrease with increasing age, a finding consistent with those from population PK modeling which indicate that the rate of clearance/metabolism of PAA varies directly with body size. While systemic metabolite exposure, assessed as peak plasma concentration (Cmax) or AUC, is generally similar for HPN-100 and NaPBA, the minimum concentration (Cmin-ss) was higher—and/or percent-fluctuation less—for plasma PAGN, a finding consistent with slower gastrointestinal absorption of PBA when administered orally as HPN-100.

[3] = HPN-100-012 switch-over study, pharmacokinetics of HPN-100 and NaPBA in pediatric UCD patients; conditions: HPN-100-012 (N = 15), TID with meals
Procedure: HPN-100-012, an open-label, fixed sequence, switch-over study of the safety, PK and efficacy of HPN-100 compared to NaPBA in patients with UCDs, with a 12-month safety extension part. The switch-over part of the study and the 12-month safety extension are complete. The switch-over part was conducted at 7 U.S. centers and enrolled 15 pediatric UCD patients between 29 days and <6 year of age, all of whom completed the study. After review of all the safety data by the DSMB, 8 additional subjects were enrolled in the study after the switch-over phase was completed. The primary efficacy endpoint was the 24-hour AUC (area under the curve) for blood ammonia on Day 1 compared with Day 10.
as §1

[4] = Studies 4/4E, 5 extension period, normalized to 28 to 57 micromol/L
[5] = pediatric UCD patients, TID with meals, arithmetic mean

Plasma PAA CLss/F [2, 5]: 15082 mL/min | Plasma PBA CLss/F [2, 5]: 20545 mL/min | Plasma PAGN CLss/F ([2]; pediatric UCD patients, TID with meals, arithmetic mean (CV %)): 14237 mL/min | U-PAGN Ae0-12 ([2]; urinary PAGN excreted 0-12 h, arithmetic mean): 5611719 µg | U-PAGN Ae12-24 ([2]; urinary PAGN excreted 12-24 h, arithmetic mean): 6889318 µg | Plasma PAA % Fluctuation ([3]; arithmetic mean): 2141% | Plasma PAA AUC0-24 ([3]; arithmetic mean): 1096 µg·h/mL | Plasma PAA CLss/F ([3]; arithmetic mean): 25538 mL/min | Plasma PAGN CLss/F ([3]; arithmetic mean): 10830 mL/min | Plasma PBA CLss/F ([3]; arithmetic mean): 22610 mL/min | Plasma PBA Cmin-ss ([3]; arithmetic mean): 750 ng/mL | Plasma PAA Cmax-ss ([3]; arithmetic mean (CV %)): 84700 ng/mL | Plasma PAA Cmin-ss ([3]; arithmetic mean (CV %)): 26100 ng/mL | Plasma PAGN Cmin-ss ([3]; arithmetic mean (CV %)): 19900 ng/mL
SMILES: O=C(CCCc1ccccc1)OCC(COC(=O)CCCc1ccccc1)OC(=O)CCCc1ccccc1 [HPN-100, benzenebutanoic acid, 1′,1″-(1,2,3-propanetriyl) ester]
patients with one venous ammonia level exceeding 100 micromol/L not associated with a hyperammonemic crisis ([1]; Studies 4/4E, 5): 4 patients | total hyperammonemic crises ([1]; Studies 4/4E, 5, reported by three patients): 3 | mean venous ammonia, month 1 [1, 4]: 58 µmol/L | mean venous ammonia, month 3 [1, 4]: 49 µmol/L | mean venous ammonia, month 6 [1, 4]: 34 µmol/L | mean venous ammonia, month 9 [1, 4]: 65 µmol/L | mean venous ammonia, month 12 [1, 4]: 31 µmol/L | day 1 ammonia values of two individual patients ([1]; Studies 4/4E, no associated signs and symptoms of hyperammonemia, listed as RAVICTI®): 122 µmol/L and 111 µmol/L | patients with venous ammonia levels less than 100 micromol/L at day 10/week 1 ([1]; Studies 4/4E, of the 7 patients): six | day 10 ammonia value of the remaining patient ([1]; Study 4, asymptomatic): 168 µmol/L | U-PAGN Ae ([2]; urinary PAGN excreted, arithmetic mean): 12501037 µg

— US20170348269A1, “TREATMENT OF UREA CYCLE DISORDERS IN NEONATES AND INFANTS” (Horizon Therapeutics, LLC, priority 2016, published 2017)
